{"source": "patent US20230181541A1", "about": "“COMPOSITIONS AND METHODS FOR TREATING OBSESSIVE-COMPULSIVE DISORDER” (Biohaven Therapeutics Ltd., priority 2020, published 2023)", "system": "OCD patients with inadequate response to standard of care treatment", "conditions": "for YBOCS Compulsions Subscale Change from Baseline, LS Mean / YBOCS Compulsions Subscale Change from Baseline, Troriluzole vs Placebo Difference Estimate / YBOCS Obsessions Subscale Change from Baseline, LS Mean / YBOCS Obsessions Subscale Change from Baseline, Troriluzole vs Placebo Difference Estimate / YBOCS Total Change from Baseline, Troriluzole vs Placebo Difference Estimate / YBOCS Total Change from Baseline, LS Mean / YBOCS Total Score Change from Baseline, LS Mean: MITT data set, MMRM; for YBOCS Total Score Change from Baseline, LS Mean: only subjects <= median baseline YBOCS total = 26, not validated", "procedure": "In some embodiments of the invention, the individual treated according to the claimed method is assessed using the Yale Brown Obsessive Compulsive Scale (“Y-BOCS”). See Goodman et al., Arch. Gen. Psychiatry, 1989, 46, 1006-1011. According to this system, an individual is scored using a symptom checklist by asking the individual about specific obsessions and compulsions. Such symptoms are broadly categorized as aggressive obsessions, contamination obsessions, sexual obsessions, hoarding/saving obsessions, religious obsessions, obsession with need for symmetry or exactness, miscellaneous obsessions, somatic obsessions, cleaning/washing compulsions, checking compulsions, repeating rituals, counting compulsions, ordering/arranging compulsions, and miscellaneous compulsions. Each of these categories is further divided by subcategory of more specific symptoms. Individuals are scored according to the answers provided. Scores range from 0-7 for subclinical, 8-15 for mild, 16-23 for moderate, 24-31 for severe, and 32-40 for extreme severity.\nSubjects receive a dose of 140 mg QD for the first four (4) weeks, and the dose is then increased to 200 mg QD for the duration of the study. Down titration is only allowed to address tolerability issues**. Eligible subjects include those who perceived benefit in earlier phases or for whom the Principal Investigator (PI) believes extended treatment with BHV-4157 would offer an acceptable risk-benefit profile***. Subjects start the Extension phase on the dose that was taken at the end of the Randomization phase. Subjects receiving placebo in the randomization phase are blindly switched to a 140 mg dose QD for the first 4 week, and the dose is then increased to 200 mg QD (at the Week 4 visits). Down titration is only allowed to address tolerability issues. All visits after Week 4 are open-label****.\nSubjects who are stable on Standard of Care (SOC) medication and having an inadequate response to SOC are randomized to additionally receive placebo (QD) or troriluzole for 12 weeks (200 mg QD, after four weeks at 140 mg QD). Subjects completing the Randomization Phase are offered approximately 48 weeks of open-label treatment. The study is conducted from December 2017 to June 2020 with 242 subjects randomized at over 56 sites. The full study details are available online at https://clinicaltrials.gov/ct2/show/study/NCT03299166?term=biohaven&cond=Obsessive-Compulsive+Disorder&draw=2&rank=1.\nThe study involves subjects with a primary diagnosis of OCD as per Diagnostic and Statistical Manual of Mental Disorders, Fifth Edition, as confirmed by the MINI at screening.\nDuration of the subject's illness must be equal to or greater than 1 year.\nThe Clinical Global Impression Score (CGI-S) must be equal to or greater than 4 at screening and baseline.\nSubjects are excluded with a history of more than two (2) previous failed treatment trials of SSRIs, clomipramine, venlafaxine, or desvenlafaxine, (not including the current SSRI trial) given for an adequate duration at an adequate dose as defined by the MGH-TRQ-OCD.\nSubjects are excluded if they display acute suicidality or suicide attempt or self-injurious behavior in the last 12 months.\nSubjects are excluded if they have a Brown Assessment of Beliefs (BABS) score of greater than 17 at screening and baseline.\nUse of a stimulant, neuroleptic (antipsychotic), mood stabilizer and glutamate agent (e.g., topiramate, lamotrigine, N-acetylcysteine, ketamine, memantine, sodium valproate) is prohibited within the 4 weeks prior to screening and during the study.\nCurrent daily anxiolytic or benzodiazepine use is prohibited.", "key": {"[1]": {"conditions": "Week 4, only subjects > baseline YBOCS = 26 (median)"}, "[2]": {"conditions": "Week 8, only subjects > baseline YBOCS = 26 (median)"}, "[3]": {"conditions": "Week 12, only subjects > baseline YBOCS = 26 (median)"}}, "note": "Like-named read-outs stand apart in the source and are kept apart here.", "data": [{"smiles": "CN(CC(=O)Nc1nc2ccc(OC(F)(F)F)cc2s1)C(=O)CNC(=O)CN", "note": "[Troriluzole]", "values": [{"measurement": "Y-BOCS outcome versus placebo (in words)", "setting": "200 mg once daily as adjunctive therapy, all study timepoints (weeks 4 to 12)", "result": "consistent numerical improvement over placebo"}, {"measurement": "YBOCS Compulsions Subscale Change from Baseline, LS Mean", "setting": "Week 4", "result": "−1.72"}, {"measurement": "YBOCS Compulsions Subscale Change from Baseline, Troriluzole vs Placebo Difference Estimate", "setting": "Week 4", "result": "−0.44"}, {"measurement": "YBOCS Obsessions Subscale Change from Baseline, LS Mean", "setting": "Week 4", "result": "−1.67"}, {"measurement": "YBOCS Obsessions Subscale Change from Baseline, Troriluzole vs Placebo Difference Estimate", "setting": "Week 4", "result": "−0.02"}, {"measurement": "YBOCS Total Change from Baseline, Troriluzole vs Placebo Difference Estimate", "setting": "Week 4", "result": "−0.5"}, {"measurement": "YBOCS Total Change from Baseline, LS Mean", "setting": "Week 4, 140 mg QD first 4 weeks then 200 mg QD, added to SOC", "result": "−3.4", "unit": "points"}, {"measurement": "YBOCS Total Score Change from Baseline, LS Mean", "setting": "Week 4", "result": "−2.8"}, {"measurement": "YBOCS Total Change from Baseline, LS Mean", "setting": "[1]", "result": "−4.1", "unit": "points"}, {"measurement": "YBOCS Total Change from Baseline, Troriluzole vs Placebo Difference Estimate", "setting": "[1]", "result": "−0.6"}, {"measurement": "YBOCS Compulsions Subscale Change from Baseline, LS Mean", "setting": "Week 8", "result": "−2.61"}, {"measurement": "YBOCS Compulsions Subscale Change from Baseline, Troriluzole vs Placebo Difference Estimate", "setting": "Week 8", "result": "−1.20"}, {"measurement": "YBOCS Obsessions Subscale Change from Baseline, LS Mean", "setting": "Week 8", "result": "−2.50"}, {"measurement": "YBOCS Obsessions Subscale Change from Baseline, Troriluzole vs Placebo Difference Estimate", "setting": "Week 8", "result": "−0.36"}, {"measurement": "YBOCS Total Change from Baseline, Troriluzole vs Placebo Difference Estimate", "setting": "Week 8", "result": "−1.5"}, {"measurement": "YBOCS Total Change from Baseline, LS Mean", "setting": "Week 8, 140 mg QD first 4 weeks then 200 mg QD, added to SOC", "result": "−5.1", "unit": "points"}, {"measurement": "YBOCS Total Score Change from Baseline, LS Mean", "setting": "Week 8", "result": "−4.4"}, {"measurement": "YBOCS Total Change from Baseline, LS Mean", "setting": "[2]", "result": "−6.0", "unit": "points"}, {"measurement": "YBOCS Total Change from Baseline, Troriluzole vs Placebo Difference Estimate", "setting": "[2]", "result": "−2.9"}, {"measurement": "YBOCS Compulsions Subscale Change from Baseline, LS Mean", "setting": "Week 12", "result": "−3.01"}, {"measurement": "YBOCS Compulsions Subscale Change from Baseline, Troriluzole vs Placebo Difference Estimate", "setting": "Week 12", "result": "−0.64"}, {"measurement": "YBOCS Obsessions Subscale Change from Baseline, LS Mean", "setting": "Week 12", "result": "−2.91"}, {"measurement": "YBOCS Obsessions Subscale Change from Baseline, Troriluzole vs Placebo Difference Estimate", "setting": "Week 12", "result": "−0.36"}, {"measurement": "YBOCS Total Change from Baseline, Troriluzole vs Placebo Difference Estimate", "setting": "Week 12", "result": "−1.0"}, {"measurement": "YBOCS Total Change from Baseline, LS Mean", "setting": "Week 12, 140 mg QD first 4 weeks then 200 mg QD, added to SOC", "result": "−5.9", "unit": "points"}, {"measurement": "YBOCS Total Score Change from Baseline, LS Mean", "setting": "Week 12", "result": "−5.0"}, {"measurement": "YBOCS Total Change from Baseline, LS Mean", "setting": "[3]", "result": "−7.0", "unit": "points"}, {"measurement": "YBOCS Total Change from Baseline, Troriluzole vs Placebo Difference Estimate", "setting": "[3]", "result": "−2.4"}, {"measurement": "safety profile", "setting": "in vivo", "result": "safe and well tolerated"}]}]}
